Data set [1] concerns HBV. Kind of data set: HBV inhibitory activity: HBV DNA in the culture medium of HepG2.2.15 cells by q-PCR. The class given is cell-based. Conditions: Hepatitis B virus, HepG2.2.15, 144 h, HepG2.2.15 cells, 6 days of compound treatment, HBV DNA in culture medium by q-PCR, highest concentration 10 μM; read-out: EC50. Summed up: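 HepG2.2.15 cells in 2% FBS medium, 40,000 per well, treated 6 days with compound (medium refreshed once), eight 3-fold dilutions from 10 μM top. HBV DNA extracted from culture medium and quantified by q-PCR; EC50 averaged over repeats. Cytotoxicity run in parallel at 5,000 cells per well, top 100 μM, giving CC50.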

Data set [2] can be described thus: Cytotoxicity determination in HepG2.2.15 cells (CCK-8). The class given is cell-based. Conditions: human, 6 days of compound treatment, CCK-8, highest concentration 100 μM. Summed up: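 HepG2.2.15 cells seeded at 5,000 cells/well in 2% FBS medium, incubated overnight at 37° C., then treated 6 days with compounds (8 points, 3-fold dilutions, top 100 μM), medium refreshed once midway. CCK-8 added for 2.5 h; A450 read against 630 nm reference; CC50 calculated, averaged over repeats.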

As usually defined, the EC50 is the concentration at which the effect is half-maximal. One may read the CC50 as the concentration giving 50% cytotoxicity. Higher therefore signals lower toxicity to the cells.

With `COC(=O)C1=C(C2CCN(S(=O)(=O)[C@H]3C[C@H](C(=O)O)C3)CC2)NC(c2nccs2)=NC1c1ccc(F)c(F)c1Br` (relative stereo) [Compound 162, trans-3-((4-(−6-(2-Bromo-3,4-difluorophenyl)-5-(methoxycarbonyl)-2-(thiazol-2-yl)-3,6-dihydropyrimidin-4-yl)piperidin-1-yl)sulfonyl)cyclobutanecarboxylic Acid], the EC50 in data set [1] was 59 nM. In addition, the midpoint of cytotoxicity in data set [2], the CC50 at 6 days, lay at 34500 nM.

`COC(=O)C1=C(C2CCN(S(=O)(=O)CC(F)(F)F)CC2)NC(c2nccs2)=NC1c1ccc(F)cc1Cl` (centres unmarked) [Compound 216, Methyl 4-(2-chloro-4-fluorophenyl)-2-(thiazol-2-yl)-6-(1-((2,2,2-trifluoroethyl)sulfonyl)piperidin-4-yl)-1,4-dihydropyrimidine-5-carboxylate]: the EC50 in data set [1] was 90 nM. In data set [2], this molecule had a CC50 at 6 days of over 100000 nM.

For the molecule `CCOC(=O)C1=C(C2CCN(S(=O)(=O)C[C@H]3CC[C@H](C(=O)O)CC3)CC2)NC(c2nccs2)=NC1c1ccc(F)c(F)c1Cl` (stereo partly drawn) [Compound 424, trans-4-(((4-(6-(2-chloro-3,4-difluorophenyl)-5-(ethoxycarbonyl)-2-(thiazol-2-yl)-3,6-dihydropyrimidin-4-yl)piperidinyl)sulfonyl)methyl)cyclohexane-1-carboxylic Acid], the EC50 in data set [1] is 7 nM. In data set [2], this molecule yielded a CC50 at 6 days of 8200 nM.

With `COC(=O)C1=C(C2CCN(S(C)(=N)=O)CC2)NC(c2nccs2)=NC1c1ccc(F)cc1Cl` (centres unmarked) [Compound 401B, Methyl 4-(2-chloro-4-fluorophenyl)-6-(1-(S-methylsulfonimidoyl)piperidin-4-yl)-2-(thiazol-2-yl)-1,4-dihydropyrimidine-5-carboxylate], the EC50 in data set [1] is 29 nM. The same molecule returned a 50% cytotoxic concentration (CC50) at 6 days in data set [2] of 56200 nM.

As for `COC(=O)C1=C(C2CCN(S(=O)(=O)CC34CC(C(=O)O)(C3)C4)CC2)NC(c2nccs2)=NC1c1ccc(F)c(F)c1Cl` (centres unmarked) [Compound 456, 3-(((4-(6-(2-Chloro-3,4-difluorophenyl)-5-(methoxycarbonyl)-2-(thiazol-2-yl)-3,6-dihydropyrimidin-4-yl)piperidin-1-yl)sulfonyl)methyl)bicyclo[1.1.1]pentane-1-carboxylic Acid], in data set [1], the EC50 was determined as 43 nM. In addition, in data set [2], the CC50 at 6 days was 19500 nM.

Consider `COC(=O)C1=C([C@H]2CC[C@H](NS(=O)(=O)CCCO)CC2)NC(c2nccs2)=NC1c1ccc(F)c(F)c1Cl` (relative stereo) [Compound 253B, (trans)-Methyl 4-(2-chloro-3,4-difluorophenyl)-6-(4-(3-hydroxypropylsulfonamido)cyclohexyl)-2-(thiazol-2-yl)-1,4-dihydropyrimidine-5-carboxylate], for which the EC50 in data set [1] was determined as 8 nM. In data set [2], this molecule gave a CC50 at 6 days of 13700 nM.

In the case of `COC(=O)C1=C(C2CCN(S(=O)(=O)c3cnn(CCCCC(=O)O)c3)CC2)NC(c2nccs2)=NC1c1ccc(F)cc1Cl` (centres unmarked) [Compound 471, 5-(4-((4-(6-(2-Chloro-4-fluorophenyl)-5-(methoxycarbonyl)-2-(thiazol-2-yl)-3,6-dihydropyrimidin-4-yl)piperidin-1-yl)sulfonyl)-1H-pyrazol-1-yl)pentanoic Acid], the EC50 in data set [1] was 53 nM. This molecule returned a CC50 at 6 days in data set [2] of 32300 nM.

Consider `COC(=O)C1=C(C2CCN(C)C(=O)C2)NC(c2nccs2)=NC1c1cccc(F)c1Cl` (single isomer, unassigned) [Compound 4B, Methyl 4-(2-chloro-3-fluorophenyl)-6-(1-methyl-2-oxopiperidin-4-yl)-2-(thiazol-2-yl)-1,4-dihydropyrimidine-5-carboxylate], for which the EC50 in data set [1] came to 351 nM. In data set [2], this molecule yielded a CC50 at 6 days of over 10000 nM.

With `CCOC(=O)C1=C([C@H]2CC[C@H](C(=O)NC)CC2)NC(c2nccs2)=NC1c1ccc(F)cc1Cl` (single isomer, unassigned) [Compound 132A, trans-Ethyl 4-(2-chloro-4-fluorophenyl)-6-(4-(methylcarbamoyl)-cyclohexyl)-2-(thiazol-2-yl)-1,4-dihydropyrimidine-5-carboxylate], the EC50 in data set [1] is 472 nM. For the same molecule, in data set [2], the CC50 at 6 days stood at 23900 nM.

For the molecule `COC(=O)C1=C(C2CCN(S(=O)(=O)[C@H]3C[C@H](CO)C3)CC2)NC(c2nccs2)=N[C@@H]1c1ccc(F)cc1Cl` [Compound 357A, (trans)-Methyl 4-(2-chloro-4-fluorophenyl)-6-(1-((3-(hydroxymethyl)cyclobutyl)sulfonyl)piperidin-4-yl)-2-(thiazol-2-yl)-1,4-dihydropyrimidine-5-carboxylate], the EC50 in data set [1] turned out to be 37 nM. Further, the CC50 at 6 days in data set [2] was 13600 nM.

On to `CCOC(=O)C1=C(C2CCN(S(=O)(=O)C3CC(CC(=O)O)C3)CC2)NC(c2nccs2)=NC1c1ccc(F)c(F)c1Cl` (centres unmarked) [Compound 482A, 2-(3-((4-(6-(2-Chloro-3,4-difluorophenyl)-5-(ethoxycarbonyl)-2-(thiazol-2-yl)-3,6-dihydropyrimidin-4-yl)piperidin-1-yl)sulfonyl)cyclobutyl)acetic Acid], for which the EC50 in data set [1] was found to be 6 nM. In data set [2], this molecule returned a CC50 at 6 days of 15300 nM.

Consider `COC(=O)C1=C(C2CCN(S(=O)(=O)c3cn[nH]c3)CC2)NC(c2nccs2)=NC1c1cccc(F)c1Cl` (centres unmarked) [Compound 158A, methyl 6-(1-((1H-pyrazol-4-yl)sulfonyl)piperidin-4-yl)-4-(2-chloro-3-fluorophenyl)-2-(thiazol-2-yl)-1,4-dihydropyrimidine-5-carboxylate], for which the EC50 in data set [1] is 9 nM. This molecule also had a CC50 at 6 days in data set [2] of 12700 nM.

For `COC(=O)CCS(=O)(=O)N1CCC(C2=C(C(=O)OC)C(c3ccc(F)c(F)c3Cl)N=C(c3nccs3)N2)CC1` (centres unmarked) [Compound 157A, Methyl 4-(2-chloro-3,4-difluorophenyl)-6-(1-((3-methoxy-3-oxopropyl)sulfonyl)piperidin-4-yl)-2-(thiazol-2-yl)-1,4-dihydropyrimidine-5-carboxylate], the EC50 in data set [1] was 85 nM. In addition, in data set [2], the CC50 at 6 days was 80000 nM.

On to `CNS(=O)(=O)N1CCC(C2=C(C(=O)OC)C(c3cccc(F)c3Cl)N=C(c3nccs3)N2)CC1` (single isomer, unassigned) [Compound 115B, 4-(2-Chloro-3-fluoro-phenyl)-6-(1-methylsulfamoyl-piperidin-4-yl)-2-thiazol-2-yl-1,4-dihydro-pyrimidine-5-carboxylic Acid Methyl Ester], for which the EC50 in data set [1] came to 342 nM. In data set [2], this molecule displayed a CC50 at 6 days of 19100 nM.

With `COCCNS(=O)(=O)N1CCC(C2=C(C(=O)OC)C(c3ccc(F)cc3Cl)N=C(c3nccs3)N2)CC1` (single isomer, unassigned) [Compound 268B, Methyl 4-(2-chloro-4-fluorophenyl)-6-(1-(N-(2-methoxyethyl)-sulfamoyl)piperidin-4-yl)-2-(thiazol-2-yl)-1,4-dihydropyrimidine-5-carboxylate], the EC50 in data set [1] came out at 59 nM. This molecule also showed a CC50 at 6 days in data set [2] of 30700 nM.

Consider `COC(=O)C1=C(C2CCN(S(=O)(=O)[C@H]3C[C@@H](C(C)(C)O)C3)CC2)NC(c2nccs2)=NC1c1ccc(F)cc1Cl` (single isomer, unassigned) [Compound 244D, (cis)-Methyl 4-(2-chloro-4-fluorophenyl)-6-(1-((3-(2-hydroxypropan-2-yl)cyclobutyl)sulfonyl)piperidin-4-yl)-2-(thiazol-2-yl)-1,4-dihydropyrimidine-5-carboxylate], for which the EC50 in data set [1] stood at 107 nM. The cytotoxic concentration (CC50) at 6 days in data set [2] was 60000 nM.
